According to patent publication US10722580B2, “Compositions and methods for treatment and prevention of uropathogenic E. coli infection” (UNIVERSITY OF WASHINGTON, priority 2015, dated 2020):

Tests used:
E. coli UTI89 [1] = assay: Biofilm formation on mannan-coated surface; assay type: cell-based; settings: 1% mannose or 50 μg/ml mAb added prior to growth (FIG. 7A)
Procedure: (§1) Microtiter 96-well plates were coated with 20 μg/mL of yeast mannan or RNaseB (Sigma-Aldrich) in 0.02 M NaHCO3 buffer at pH 9.6. Bacterial strains grown overnight in 3 ml LB media were spun and washed 1× with minimal essential media (MEM, Difco). […] After washing with PBS, formed biofilms were stained with 0.1% (v/v) crystal violet (Becton Dickinson) as described above for bacterial adhesion assay. […] The wells were washed 3 times with PBS and stain for biofilm detection as described above.

E. coli UTI89 [2] = assay: Detachment of 16 h-old biofilm on mannan-coated surface; assay type: cell-based; settings: for effect on detachment of pre-formed biofilm: 1% mannose or 50 μg/ml mAb (FIG. 7B)
Procedure: as §1

Klebsiella pneumoniae [3] = assay: Klebsiella biofilm formation on RNaseB-coated surfaces; assay type: cell-based; settings: two Klebsiella FimH variants, 1% mannose or 50 μg/ml mAb (FIG. 11A)
Procedure: (§2) FIG. 11. […] Data (mean±SD, n=3 independent experiments). […] Data (mean±SD, n=3 independent experiments). Biofilm was quantified using the crystal violet staining method. *, P≤0.05, **, P≤0.0005 (one sample t-test).
as §1

[4] = tested on: FimH^wt-expressing E. coli; assay: Inhibition of bacterial adhesion to surface-immobilized yeast mannan; assay type: cell-based
Procedure: (§3) Microtiter 96-well plates were coated with 20 μg/ml of yeast mannan or RNaseB (Sigma-Aldrich) in 0.02 M NaHCO3 buffer at pH 9.6. The wells were quenched with 0.2% bovine serum albumin (BSA, Sigma-Aldrich) in PBS for 20 min. Bacteria expressing FimH adhesin (OD=1 or OD=2) were first preincubated with different concentrations of mAbs for 1 h at 37° C. and then allowed to adhere to ligand-coated surface for another 1 h. After an extensive washing with PBS, plates were dried and bound bacteria were stained with 0.1% crystal violet (Becton Dickinson) for 20 min at room temperature (RT). The wells were washed with water and 50% ethanol was added to the wells. The absorbance was measured at 600 nm.

FimH^wt:(186-201)FocH = assay: Cross-interference of inhibitory mAbs binding to FimH; set-up: species or system E. coli; settings: FimH pre-incubated with antibody, biotinylated mAb binding (FIG. 16)
FimH^wt:(186-201)FocH, sequence (P08191 22-179 limits assumed): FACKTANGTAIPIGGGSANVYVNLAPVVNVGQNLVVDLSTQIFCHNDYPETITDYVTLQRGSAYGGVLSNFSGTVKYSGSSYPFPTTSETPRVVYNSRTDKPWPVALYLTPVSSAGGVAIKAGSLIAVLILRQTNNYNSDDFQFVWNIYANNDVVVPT
Procedure: FIG. 16. Inhibitory mAbs interfere with each other's binding to FimH. […] The data shown are mean±SD of triplicates from one representative experiment of multiple experiments that were performed with similar settings.

E. coli UTI89 [5] = assay: Mouse bladder infection, transurethral inoculation of mAb-pretreated bacteria; assay type: in vivo; settings: C57BL/6 mice, 24 h post infection, bacteria pretreated with 500 μg/ml mAb 1 h
Procedure: Infection of 10- to 11-week-old C57BL/6 female mice was performed as described elsewhere (Kisiela, et al. 2013). Briefly, bacteria were grown in LB medium without shaking for 48 h, harvested, washed twice in PBS and resuspended in PBS at a final concentration of 10^8 CFU per ml. Bacteria were pretreated with 500 μg/ml mAbs for 1 h at 37° C. prior to inoculation. Mice were anesthetized with ketamine/xylazine and twenty-five microliters of mAb-pretreated bacteria in PBS were inoculated transurethrally into mouse bladders via catheter. After 24 h, mice were sacrificed and bladders were aseptically removed and homogenized in 1 mL PBS. Serial dilutions were plated and total bacterial load per bladder was calculated. Statistical significance was determined using two-tailed Mann-Whitney test (GraphPad Prism 6.0 software, La Jolla, Ca).

E. coli CFT073 [6] = assay: Passive and active immunization, non-diabetic mice, bacterial load in urine; assay type: in vivo
Procedure: (§4) The intraperitoneal injection was completed 1 day prior and 1 day after challenge with CFT073 E. coli (A07 Study for Vaccine candidate, Contract #HHSN2722010000401, Task Order #HHSN27200005, Galveston). […] Mixtures of antibodies for passive transfer were prepared as 150 μg per mouse doses in 50 μl volumes of sterile HBS. The effect of the antibodies was evaluated in two mice models that included non-diabetic and diabetic C57BI/6 mice, respectively. Mice injected with incomplete Freund's adjuvant only (IFA) were used as the control (mock) group in each model. Bacterial load in mice urine was analyzed daily over 14-days' time period starting 24 h after bacterial challenge.
Diabetic state in C57BI/6 mice was induced by the 4 days-treatment with streptozotocin (STZ) by intraperitoneal injection. Groups of 100 C57BI/6 mice were randomly divided into 5 groups of ten for diabetic and for non-diabetic states respectively. […] Mice were challenged with CFT073 UPEC strain (1×10^6 cfu/50 μl per mouse) via intraurethral catheterization under isoflurane anesthesia. Bacterial load in mice urine was analyzed daily over 14-days' time starting 24 h after bacterial challenge. Genomic bacterial load was quantified in each urine sample (10 μl) by qPCR. Statistical analysis of the data was performed using the Generalized Estimating Equation model (GEE) (xtgee command in STATA software, StataCorp. 2015. Stata Statistical Software: Release 14. College Station, Tex.: StataCorp LP). Overall, 1400 observations were made for 100 mice over 14 days. Out of 1,400 total 237 observations were missing (no urine provided) and were excluded from subsequent analysis. The mice ID were set as a panel variable, treatment type and days as predictor variables with interaction allowed between them; and E. coli counts as an outcome variable. […] For log10 transformation, zero counts (E. coli not detected) were replaced with value 1. […] After exclusion of outliers, 617 (out of initial 673, 91.6%) observations were analyzed using same model.

E. coli CFT073 [7] = assay: Passive and active immunization, diabetic mice, bacterial load in urine; assay type: in vivo; settings: diabetic (STZ) mice; mAb 150 μg i.p. or LD antigen 15 μg s.c.
Procedure: as §4
Diabetic state in C57BI/6 mice was induced by the 4 days-treatment with streptozotocin (STZ) by intraperitoneal injection. Groups of 100 C57BI/6 mice were randomly divided into 5 groups of ten for diabetic and for non-diabetic states respectively. […] Bacterial load in mice urine was analyzed daily over 14-days' time starting 24 h after bacterial challenge. Genomic bacterial load was quantified in each urine sample (10 μl) by qPCR. […] For log10 transformation, zero counts (E. coli not detected) were replaced with value 1. […] After exclusion of outliers, 617 (out of initial 673, 91.6%) observations were analyzed using same model.

Klebsiella fimbrial FimH = assay: Binding of anti-E. coli FimH antibodies to Klebsiella fimbrial FimH; set-up: species or system Klebsiella pneumoniae; settings: FimH^wt and FimH^S62A, 50 and 5 μg/ml mAb (FIG. 9)
Procedure: FIG. 9. Recognition of Klebsiella FimH by anti-E. coli FimH antibodies. […] Type 1 fimbriae carrying different FimH variants (FimH^wt and FimH^S62A mutant) were incubated with different concentrations of mAbs (50 and 5 μg/ml). Data shown are mean±SD of duplicates from one representative experiment.

Klebsiella pneumoniae [8] = assay: Inhibition of Klebsiella adhesion to surface-immobilized RNaseB; assay type: cell-based; settings: 50 μg/ml mAb (FIG. 10)
Procedure: FIG. 10. […] Data are mean±SD (n=2 independent experiments).
as §3

Klebsiella pneumoniae [9] = assay: Detachment of 14 h-old Klebsiella biofilm; assay type: cell-based; settings: 14-h-old biofilm, 1% mannose or 50 μg/ml mAb (FIG. 11B)
Procedure: as §2, §1

| Substance | effect on biofilm formation (E. coli UTI89 [1]) | effect on detachment of pre-formed biofilm (E. coli UTI89 [2]) | inhibition of biofilm formation (Klebsiella pneumoniae [3]) | difference in inhibitory potency (IC50) mAb926 vs mAb475 [4] | inhibition of bacterial adhesion at its KD concentration ([4]; antibody at its KD concentration) | interference with the other inhibitory mAb's binding to FimH (FimH^wt:(186-201)FocH) | biofilm reduction (E. coli UTI89 [2]; 50 μg/ml mAb (FIG. 7B)) | reduction in bacteria recovered from bladder (E. coli UTI89 [5]) | estimated average log10 of bacterial counts in urine (E. coli CFT073 [6]; non-diabetic C57BI/6 mice, day 1 after challenge, 150 μg mAb i.p. 1 day prior and 1 day after challenge) | estimated log10 bacterial counts in urine (E. coli CFT073 [6]; non-diabetic C57BI/6 mice, day 3 after challenge, 150 μg mAb i.p.) | effect on bacterial counts in urine vs mock group (E. coli CFT073 [6]; non-diabetic mice, mAb 150 μg i.p. or LD antigen 15 μg s.c.) | effect on bacterial counts in urine vs mock group (E. coli CFT073 [7]) | binding to Klebsiella FimH compared with E. coli FimH (Klebsiella fimbrial FimH) | effect on Klebsiella adhesion to RNaseB (Klebsiella pneumoniae [8]) | destabilization of pre-formed biofilm (Klebsiella pneumoniae [9]) |
| --- | --- | --- | --- | --- | --- | --- | --- | --- | --- | --- | --- | --- | --- | --- | --- |
| α-methyl-D-mannopyranoside [mannose, reference compound] | prevented formation | neither mAb475 nor soluble mannose caused substantial detachment | 38-67% |  |  |  |  |  |  |  |  |  |  |  |  |
| mAb926: mouse monoclonal anti-FimH antibody, VL SEQ ID NO: 3, VH SEQ ID NO: 4; non-competitive parasteric inhibitor | prevented formation | effective dissolution of the biofilm | 76-86% | 32 fold | > 50% | strongly cross-interfere with each other's binding to FimH | 93% | 83% | 1.31±0.5 log10 | 0.99±0.4 log10 | significant decrease of bacterial counts in urine | reduced bacterial load | same level of binding to both FimH adhesins | significantly reduced bacterial adhesion | significant (P=0.0005) destabilization of the biofilm |
